According to patent publication US8710241B2, “Crystalline form of zofenopril calcium” (Generics [UK]Limited, priority 2007, dated 2014):
Structures can show the parent of a compound that is named as a salt.

What was measured:
[1] = Water vapour sorption isotherm (Surface Measurement Systems DVS-HT); type: physicochemical; details: 25° C.; for Maximum water uptake: high/elevated relative humidity levels (greater than 90% rh), calcium salt
Experimental: Equilibrium water uptake levels of less than 0.5 wt % were observed up to a relative humidity level of 70% rh, which may be considered the uppermost limit of ambient humidity conditions.
Determination of the water vapour sorption isotherms of zofenopril calcium crystalline form D according to the invention and of the prior art form B were performed by Surface Measurement Systems DVS-HT. The resultant isotherms, as shown in FIGS. 4 and 5 respectively, were obtained under the following parameters: • Temperature=25° C. • Humidity profile: Desorption 1: 50-0% relative humidity (rh) in steps of 10% • Adsorption: 0-90% rh in steps of 10%, 95% rh • Desorption 2: 95% rh, 90-50% rh in steps of 10% • Equilibration time per rh stage: 240 min (0% rh), 180 min (all other rh levels)

[2] = DSC and XRPD experiments on polymorphic transition; type: physicochemical; details: up to temperatures of ca. 140° C.
Experimental: The X-ray powder diffraction data was obtained by methods known in the art using a Bruker D8 Advance Powder Diffractometer with scintillation detector under the following parameters: • Reflectance mode • Cu Kα radiation (1.5406 Å) • Scanning range: 2-30 °2θ • Step size: 0.02 °2θ • Time per step: 6s

[3] = Conditioning (equilibration) of dried samples, characterised by XRPD; type: physicochemical; details: conditioned at 30° C. for 30 minutes under nitrogen after drying
Experimental: Approximately 100 mg of zofenopril calcium were dried at 50° C. for 120 minutes under a nitrogen flow atmosphere (flow rate: 500 ml/min). The sample was finally conditioned at 30° C. for 30 minutes under the nitrogen gas atmosphere.
The drying processes as detailed in the above examples yield the novel anhydrous form D of zofenopril calcium according to the invention. […] Thus, the compounds prepared by examples 1-5 were determined to be the same crystalline form and were distinct from the prior art forms A, B, and C. Further, the samples were then ‘conditioned’, i.e. they were allowed to equilibrate.

[4] = TGA, 25-105° C.
Experimental: The compounds obtained by the processes according to the invention as described above and in the following examples were also subjected to thermogravimetric analysis (TGA). […] The TGA analysis data was obtained using a Mettler-Toledo TGA851e apparatus under the following parameters: • Temperature profile: 25-300° C.@5° C./min • Nitrogen purge gas: 50 ml/min • Aluminium pan: 40 μl, pierced prior to scan

Structure (SMILES)	Maximum water uptake [1]	Equilibrium water uptake ([1]; up to a relative humidity level of 70% rh)	Re-conversion to hydrate form C upon exposure to water vapour ([1]; water vapour sorption isotherm, 0-95% rh)	Polymorphic transition [2]	Conversion upon cooling to hydrated form C or another crystalline form [3]	Weight loss, equivalent to loss on drying (LOD) [4]
C[C@H](CSC(=O)c1ccccc1)C(=O)N1C[C@@H](Sc2ccccc2)C[C@H]1C(=O)O [form D, (4S)-1-[(2S)-3-(benzoylthio)-2-methylpropionyl]-4-(phenylthio)-L-proline calcium salt]	ca. 1 wt %	less than 0.5 wt %	does not easily re-convert to hydrate form C	no polymorphic transition	no conversion	less than 0.5 wt %
C[C@H](CSC(=O)c1ccccc1)C(=O)N1C[C@@H](Sc2ccccc2)C[C@H]1C(=O)O [form B, (4S)-1-[(2S)-3-(benzoylthio)-2-methylpropionyl]-4-(phenylthio)-L-proline calcium salt, reference compound]	approximately 2.5 wt %	–	–	–	–	–
